This is an account of results in publication PMC3339042 (2012).

Assay [1] concerns the target T1, ubiquitin E1 (UBA1) (Homo sapiens, UniProt P22314).
T1 sequence (P22314 2-1058): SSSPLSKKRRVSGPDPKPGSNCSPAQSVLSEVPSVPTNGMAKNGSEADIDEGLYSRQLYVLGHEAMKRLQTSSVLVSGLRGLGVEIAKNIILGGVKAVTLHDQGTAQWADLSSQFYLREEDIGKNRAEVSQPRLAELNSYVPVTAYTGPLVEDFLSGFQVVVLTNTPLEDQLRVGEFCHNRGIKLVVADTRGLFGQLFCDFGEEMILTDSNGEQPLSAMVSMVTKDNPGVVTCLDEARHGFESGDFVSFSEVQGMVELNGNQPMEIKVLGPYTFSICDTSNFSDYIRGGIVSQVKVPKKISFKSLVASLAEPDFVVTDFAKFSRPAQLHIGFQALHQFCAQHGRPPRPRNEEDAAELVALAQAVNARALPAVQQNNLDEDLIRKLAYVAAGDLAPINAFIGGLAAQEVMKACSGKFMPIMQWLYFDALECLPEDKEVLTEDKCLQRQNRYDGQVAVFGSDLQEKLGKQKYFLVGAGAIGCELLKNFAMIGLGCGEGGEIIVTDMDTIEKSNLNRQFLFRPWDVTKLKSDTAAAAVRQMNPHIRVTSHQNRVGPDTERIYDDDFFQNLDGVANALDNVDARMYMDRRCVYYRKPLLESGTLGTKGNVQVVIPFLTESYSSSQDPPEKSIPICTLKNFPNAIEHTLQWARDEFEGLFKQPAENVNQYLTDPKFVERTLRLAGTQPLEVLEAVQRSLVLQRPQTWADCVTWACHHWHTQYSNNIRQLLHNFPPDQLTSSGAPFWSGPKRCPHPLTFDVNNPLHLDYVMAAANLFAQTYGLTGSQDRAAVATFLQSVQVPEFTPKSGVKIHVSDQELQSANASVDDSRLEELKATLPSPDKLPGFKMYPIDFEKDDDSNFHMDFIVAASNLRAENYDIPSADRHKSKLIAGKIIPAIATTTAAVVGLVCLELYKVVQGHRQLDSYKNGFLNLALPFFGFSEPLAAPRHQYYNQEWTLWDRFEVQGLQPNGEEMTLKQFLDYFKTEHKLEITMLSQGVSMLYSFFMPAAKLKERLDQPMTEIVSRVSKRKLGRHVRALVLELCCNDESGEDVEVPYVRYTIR
Briefly: […]-AMP:[α-32P]-ATP exchange TLC assay. The format is biochemical.

For assay [2], the target named is T1, ubiquitin E1 (UBA1). Briefly: E1-ubiquitin thioester gel assay with fluorescein-ubiquitin without E2. The assay is classed as biochemical.

Consider `CCOC(=O)c1ccc(N2NC(=O)C(=Cc3ccc([N+](=O)[O-])o3)C2=O)cc1` [PYR-41], for which, in assay [1], the IC50 worked out at 6.4 µM. `CCCCCCCCCCNCCSSCc1ccc(Cl)cc1` [compound 1, NSC624206] displayed an IC50 in assay [2] of approximately 9 µM.

As usually defined, the IC50 is the concentration at which inhibition is half-maximal. A lower IC50 goes with inhibition by little substance.
